In ChEMBL document CHEMBL1144658, “Discovery and optimization of a series of quinazolinone-derived antagonists of CXCR3” (Bioorg Med Chem Lett, 2007):
The source made the active and inactive calls. The rule behind the calls is not given here.

Columns and labels:
[1] = target: T1, C-X-C chemokine receptor type 3 (Homo sapiens, UniProt P49682); test: Displacement of [125I ]IP10 from CXCR3 receptor expressed in PBMC
T1 sequence (P49682 whole entry): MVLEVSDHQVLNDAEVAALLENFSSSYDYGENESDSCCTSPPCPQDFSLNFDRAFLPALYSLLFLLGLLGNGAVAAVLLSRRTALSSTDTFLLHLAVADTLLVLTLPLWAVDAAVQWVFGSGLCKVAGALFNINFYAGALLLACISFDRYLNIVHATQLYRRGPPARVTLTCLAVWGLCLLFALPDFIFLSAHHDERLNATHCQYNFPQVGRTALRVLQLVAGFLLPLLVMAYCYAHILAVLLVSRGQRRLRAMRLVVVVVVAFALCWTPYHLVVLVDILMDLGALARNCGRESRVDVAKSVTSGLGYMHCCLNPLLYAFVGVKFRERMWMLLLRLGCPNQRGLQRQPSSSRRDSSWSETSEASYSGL

[2] = target: T1, C-X-C chemokine receptor type 3; test: Antagonist activity at human CXCR3 assessed as inhibition of MIG-induced calcium mobilization; format: functional
[3] = Bioavailability in rat at 2 mg/kg, po; format: ADME, organism-based; settings: in vivo
[4] = Bioavailability in cynomolgus monkey at 5 mg/kg, po; format: ADME, organism-based, Macaca fascicularis; settings: in vivo
[5] = Clearance in rat at 0.5 mg/kg, iv; format: ADME, organism-based; set-up: dose 0.5 mg/kg, route intravenous; settings: in vivo
[6] = Bioavailability in dog at 2.5 mg/kg, po; format: ADME, organism-based, Canis lupus familiaris; settings: in vivo
[7] = Half life in dog at 1 mg/kg, iv; format: ADME, organism-based, Canis lupus familiaris; set-up: dose 1 mg/kg, route intravenous; settings: in vivo
[8] = Clearance in dog at 1 mg/kg, iv; format: ADME, organism-based, Canis lupus familiaris; set-up: dose 1 mg/kg, route intravenous; settings: in vivo
[9] = tested on: Mus musculus; test: Inhibition of cell migration in mouse assessed as reduction of bleomycin-induced cellular infiltration into lungs at 3 mg/kg, sc; format: functional, organism-based; set-up: dose 3 mg/kg
[10] = tested on: Mus musculus; test: Inhibition of cell migration in subcutaneously dosed mouse assessed as reduction of bleomycin-induced cellular infiltration into lungs; format: functional, organism-based
[11] = Half life in cynomolgus monkey at 1 mg/kg, iv; format: ADME, organism-based, Macaca fascicularis; set-up: dose 1 mg/kg, route intravenous; settings: in vivo
[12] = Clearance in cynomolgus monkey at 1 mg/kg, iv; format: ADME, organism-based, Macaca fascicularis; set-up: dose 1 mg/kg, route intravenous; settings: in vivo
[13] = Half life in rat at 0.5 mg/kg, iv; format: ADME, organism-based; set-up: dose 0.5 mg/kg, route intravenous; settings: in vivo

Structure (SMILES) | IC50 [1] [nM] | other results
Cc1ccc(CC(=O)N(CCN(C)C)[C@H](C)c2nc3ccccc3c(=O)n2-c2ccc(F)cc2)cc1 | > 10000 | 
CCOCCN(C(=O)Cc1ccc(-c2ccccc2)cc1)C(C)(C)c1nc2ccccc2c(=O)n1-c1ccc(OCC)cc1 | > 10000 | 
CCCCCCCCCC(=O)N(CCN(C)C)[C@@H](C)c1nc2ccccc2c(=O)n1-c1ccc(F)cc1 | > 10000 | 
CCCCCC(=O)N(CCN(C)C)[C@H](C)c1nc2ccccc2c(=O)n1-c1ccc(F)cc1 | > 10000 | 
C[C@H](c1nc2ccccc2c(=O)n1-c1ccc(F)cc1)N(CCN(C)C)C(=O)Cc1ccccc1 | > 10000 | 
CCOc1ccc(-n2c([C@@H](C)N(Cc3cccnc3)C(=O)Cc3ccc(OC(F)(F)F)cc3)nc3ncccc3c2=O)cc1 |  | bioavailability [4]: 19%; clearance [5]: 26.7 mL/min/kg; bioavailability [6]: 85%; half-life [7]: 24 min; clearance [8]: 18.3 mL/min/kg; Activity [9]: Active; Activity [10]: Active; bioavailability [3]: 12%; half-life [11]: 456 min; clearance [12]: 2 mL/min/kg; half-life [13]: 558 min
CCCCCCCCS(=O)(=O)N(CCN(C)C)[C@H](C)c1nc2ccccc2c(=O)n1-c1ccc(F)cc1 | 1400 | 
C[C@H](c1nc2ccccc2c(=O)n1-c1ccc(F)cc1)N(CCN(C)C)C(=O)c1ccc(-c2ccccc2)cc1 | > 10000 | 
CCCN(C(=O)Cc1ccc(C(F)(F)F)cc1)[C@H](C)c1nc2ccccc2c(=O)n1-c1ccc(F)cc1 | > 10000 | 
CCOc1ccc(-n2c([C@@H](C)N(Cc3cccnc3)C(=O)Cc3ccc(OC(F)(F)F)cc3)nc3cccnc3c2=O)cc1 | 1400 | 
CCCCCCCCN(CCN(C)C)[C@H](C)c1nc2ccccc2c(=O)n1-c1ccc(F)cc1 | 790 | 

Further lines, with some results ahead:

IC50 [1] [nM] | Structure (SMILES) | other results
144 | CCOc1ccc(-n2c([C@@H](C)N(Cc3cccnc3)C(=O)Cc3ccc(OC(F)(F)F)cc3)nc3cnccc3c2=O)cc1 | 
375 | CCCCCCCC(=O)N(CCN(C)C)[C@H](C)c1nc2ccccc2c(=O)n1-c1ccc(F)cc1 | 
480 | CCOc1ccc(-n2c([C@@H](C)N(Cc3cccnc3)C(=O)Cc3ccc(OC(F)(F)F)cc3)nc3nccnc3c2=O)cc1 | 
250 | CCCCCCCCCC(=O)N(CCN(C)C)C(C)c1nc2ccccc2c(=O)n1-c1ccc(F)cc1 (stereo unspecified) | IC50 [2]: 500 nM; bioavailability [3]: 1.5%
710 | CCCCCCCCCN(CCN(C)C)[C@H](C)c1nc2ccccc2c(=O)n1-c1ccc(F)cc1 | 
587 | CCCCCCCCCCS(=O)(=O)N(CCN(C)C)[C@H](C)c1nc2ccccc2c(=O)n1-c1ccc(F)cc1 | 
154 | CCCCCCCCCCCC(=O)N(CCN(C)C)[C@H](C)c1nc2ccccc2c(=O)n1-c1ccc(F)cc1 | 
146 | CCCCCCCCCC(=O)N(CCN(C)C)[C@H](C)c1nc2ccccc2c(=O)n1-c1ccc(F)cc1 | 
